Experimental data: patent US12661308B2, “Antimicrobial AZO compounds and uses thereof” (The Regents Of The University Of Colorado, A Body Corporate, priority 2019, dated 2026)
“Also recorded” adds a separate entry of the source.

Legend:
[1] = test system: S. mutans (ATCC 25175) biofilm; experiment: Detachment study of S. mutans biofilm on monomer-coated polymeric substrates (Example 1); format: cell-based, Streptococcus mutans
Procedure: The polymeric substrates were prepared by mixing 54 wt % methyl methacrylate (MMA), 30 wt % polymethylmethacrylate (PMMA, MW ˜35 k), and 16 wt % tetraethylene glycol dimethacrylate (TEGDMA) at 70° C. for 2 hr. After mixing, 1 wt. % azobisisobutyronitrile (AIBN) was added to the formulation as an initiator and mixed.
The mixed formulation was added to circular molds (diameter=6.5 mm) cut from a strip of rubber (thickness=0.9 mm) and pressed between two glass microscope slides. The mold was clamped together and thermally cured at 80° C. for 1.5 hr.
The polymeric substrates were coated as follows. Coating solutions were prepared having the following monomer concentrations (see FIG. 3 for structures of the monomers): 0.5 mg/mL and 50 mg/mL solutions of a phenolic acrylated azobenzene monomer (OH-AAZO), 50 mg/mL acrylated azobenzene monomer (AAZO), 50 mg/mL 4-hydroxyl benzylacrylate (HBA), 50 mg/mL 2-hydroxylethyl methacrylate (HEMA).
The coating solutions included the monomer in N,N′-dimethylformamide (DMF) along with 0.5 mg/mL of AIBN and 0.1 mg/mL of Rhodamine B as an indicator dye. Once mixed, 3 μL of each coating solution was pipetted onto one side of the polymeric substrate and spun at 1000 RPM for 1 min followed by spinning at 6000 RPM for 3 s. The coating was cured under a nail lamp (Melody Susie UV Gel Nail Polish Dryer, Model DR-301C) for at least 15 min before repeating the coating procedure on the other side.
The controlled growth of biofilms varied depending on the bacteria strain. In the case of S. mutans, a BHI agar plate was streaked with S. mutans (ATCC 25175) and allowed to incubate at 37° C. in 5% CO2 for 60 hr to isolate a single bacterial colony. The colony was inoculated in 5 mL of BHI and allowed to incubate statically in the 5% CO2 incubator for 24 hr. The stock solution was diluted 1:50 in a 96-well plate containing the substrates of interest and allowed to incubate in the 5% CO2 incubator for an additional 24 hr.
The detachment study quantified the biofilm grown on each substrate via a series of washes in 1×PBS. The substrate was irradiated using a dental lamp (FlashMax P3 Ortho™, 1900 mW/cm2, wavelength=450-470 nm) on the underside of the vial for a total of ten 3 s irradiations per side. Following the series of washes, the substrate was sonicated for 10 min to remove the residual biofilm on the substrate. The wash solutions were serial diluted, plated, and grown at 37° C. and 5% CO2 to obtain the CFU count.
Images collected from a digital microscope (Zeiss Axioplan II microscope, 630×, step size 0.1 μm) after the substrate and bacteria were treated with BACLIGHT Live/Dead stain are included in FIG. 4.

[2] = test system: S. mutans (ATCC 25175) biofilm; experiment: S. mutans biofilm growth study by CFU count on coated and bulk substrates (Example 4); format: cell-based, Streptococcus mutans
Procedure: Coating formulations of OH-AAZO were prepared in THF, all others were prepared in DMF. The THF volume was kept constant (1 mL) and the mass of OH-AAZO monomer was varied to attain the desired concentration. In addition to the OH-AAZO monomer, the coating also consisted of AIBN (2 wt. % relative to the mass of the monomer), and Rhodamine B (0.2 wt. % relative to the mass of the monomer).
Once cured, the MMA:TEGDMA:PMMA base polymers were placed into a mount on a square glass microscope slide. 3 μL of the coating formulation was added via pipette to one side of the substrate and spin coated (1000 rpm for 1 min, 6000 rpm for 3 min), then the process was repeated on the other side. Once both sides were coated, they were placed in an oven for 3 h at 100° C., then under vacuum for an additional 0.5 h.
Bulk OH-AAZO formulations were prepared using the acrylic base polymer method with the addition of the appropriate weight percentage of OH-AAZO (relative to the total mass of the formulation) and AIBN (rather than camphorquinone/amine, 2 wt. %). The components were stirred at room temperature until completely dissolved. The formulations were pipetted into the rubber spacer and cured for 1 h at 100° C. Conversion rates were observed via FT-IR.
Following curing, residual monomer was aqueously extracted by autoclaving (20 psi, 128° C.) for 1 h in MilliQ water (approx. 5 mL water per substrate). The MilliQ water was replaced with fresh water (approx. 5 mL water per substrate) and placed in an 80° C. oven for 2 h. The substrates were blotted dry and analyzed via UV-Vis spectroscopy to confirm the relative amount of the coating (FIG. 9). All coated and bulk substrates were autoclaved prior to their use with both mammalian and bacterial cells.
S. mutans biofilms were grown from a 24 h BHI liquid culture inoculated with an isolated S. mutans colony. The liquid culture was diluted 1:50 in BHI media containing 1 wt. % sucrose in each well in a 96-well plate containing a substrate of interest. The plate was incubated in the dark at 37° C. and 5% CO2 for the necessary amount of time (t=24 h, 48 h, 72 h, depending on the experiment).
(§1) Following biofilm growth in the 96-well plate, the substrates were aseptically removed from the 96-well plate and placed in a vial containing 5 mL of 1× PBS solution. The vials were sonicated in a water bath for 10 min at 45° C., and the wells that previously contained the substrates were briefly sonicated using a probe sonicator (3 W RMS output) for 10 s per well. 200 μL aliquots of the sonicated PBS solution were placed in a 96-well plate and diluted 1:10 in each subsequent row. 20 μL aliquots of the sonicated media wells were placed in a 96-well plate containing 180 μL of PBS solution and diluted 1:10 in each subsequent row. Each column was then plated at a volume of 10 μL on a BHI agar plate in triplicate. The plates were then incubated at 37° C. and 5% CO2 for 48 h. The CFUs on each plate were counted in order to quantify the amount of biofilm remaining on the surface of the substrate and the bacteria remaining in the media after the removal of the substrate using the following equations: […]

[3] = test system: A. actinomycetemcomitans (ATCC 43718) biofilm; experiment: Biofilm growth study, A. actinomycetemcomitans; format: cell-based, Aggregatibacter actinomycetemcomitans; settings: 50 mg/mL coated substrate, 24 h time-period
Procedure: S. oralis and A. actinomycetemcomitans were streaked on a BHI agar plate and incubated at 37° C. and 5% CO2 for 48 h. An isolated colony was inoculated in 5 mL BHI media for 12 h under the same incubation conditions, followed by a 1:10 dilution in BHI media in a 96-well plate containing the substrates of interest. […]
as §1

## C=CC(=O)Oc1ccccc1/N=N/c1ccccc1O [OH-AAZO, phenolic acrylated azobenzene]
[1]; 0.5 mg/mL coating solution, compared with 50 mg/mL coating
  antibacterial effect against S. mutans: did not result in the same antibacterial effect
[1]; 50 mg/mL coating, even prior to light/wash treatment
  S. mutans growth on the surface of the coated substrate: no growth at all
[1]; prior to wash/light treatment
  S. mutans biofilm on substrate, Live/Dead stain microscopy: comparatively very little biofilm
[2]; 5 mg/mL coating solution, 24 h
  CFUs of S. mutans biofilm on substrate: approximately 1.0×10^8 CFUs
  difference in CFUs between coated and uncoated substrates: no significant difference
[2]; 25 mg/mL coating solution, 24 h
  reduction in CFUs of S. mutans biofilm relative to the uncoated control: 4 log
[2]; 50 mg/mL coated substrates, over 72 h
  sterility of the substrate (sonication CFU): maintained sterility
[2]; 50 mg/mL coated substrates, t=48 h and 72 h
  bacterial growth in the media surrounding the substrate: Some media bacterial growth was observed
[2]; 50 mg/ml coated substrate, 24 h
  bacterial growth in the surrounding media: absent
[2]; 100 mg/mL coating solution, 24 h
  CFUs of S. mutans biofilm on substrate surface: no observable CFUs
[2]; 100 mg/ml coated substrate, 24 h
  bacterial growth in the surrounding media: absent
[2]; 1.5 wt. % OH-AAZO bulk bisGMA:TEGDMA substrate, 24 h
  CFUs of S. mutans on surface and in surrounding media: no observable CFUs; also recorded: maintained sterility
[2]; 2 wt. % OH-AAZO bulk bisGMA:TEGDMA substrate, 24 h
  CFUs of S. mutans on surface and in surrounding media: no observable CFUs; also recorded: maintained sterility
[2]; sucrose-dependent conditions
  prevention of growth of an S. mutans biofilm: shown to prevent the growth
[3]
  antibacterial effect on A. actinomycetemcomitans biofilm (CFUs): no discernable antibacterial effect or reduction in CFUs
